We go through 1 molecule from article PMC12490239, “Combining BET inhibition with SMAC mimetics restricts tumor growth and triggers immune surveillance in preclinical cancer models” (Cell Reports Medicine, 2025).

Each structure is given as a SMILES string.

Experiment in all cases: cells
What all share (parameters): CellTiter-Glo 2.0 luminescence proliferation/viability assay, single agents, human tumour cell line panel
In general terms: Cellular ATP, detected with luciferase, serves as a proxy for viable cell number.

For experiment [1], the system named is CAPAN-2. The note with it: Homo sapiens, Capan-2, 96 h; single agent; read-out: IC50 SMACm. In a few lines:
(§1)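 Human tumour cell lines were seeded into assay plates and held at 37°C with 5% CO2 for twenty-four hours, then exposed in triplicate to rising concentrations of the SMAC mimetic, from 4.5 nM to 10 μM, with DMSO as control. After 96 h, viability was read as CellTiter-Glo2.0 luminescence to derive single-agent IC50 values.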

The test system of experiment [2] is LK-2. To be noted: Homo sapiens, LK-2, 96 h; single agent; read-out: IC50 SMACm. In short, it runs like this: as §1
Experiment [3] relates to Panc 04.03. To be noted: Homo sapiens, Panc 04.03, 96 h; single agent; read-out: IC50 SMACm. In a few lines:
as §1

On to `CN[C@@H](C)C(=O)Nc1ccc(-c2c(-c3cccnc3OC)nc3cc(C)ccn23)c(C#Cc2ccc3c(C)nccc3c2)n1` [SMACm, BI 891065], for which the IC50 in experiment [1] was 8.59 µM; in experiment [2], 4.15 µM; in experiment [3], 4.68 µM.

In general, IC50 refers to the point on the concentration scale where inhibition reaches its midpoint.
